The nature of the assay: Scale inhibitor comparison: static bottle test (barium sulfate) and dynamic tube block test (calcium carbonate). Particulars: barium sulfate / calcium carbonate scale inhibition; table does not say which scale. The source says:
These types of chemistries may be used as a comparison when evaluating one or more new scale inhibitors, such as the various aspartic acid based polymers.

With `O=P(O)(O)CN(CCCCCCN(CP(=O)(O)O)CP(=O)(O)O)CCCCCCN(CP(=O)(O)O)CP(=O)(O)O` [BHMT Phosphonate], the “Approximate effective Concentration” value is listed as 2 ppm.
In the case of “diethylenetriamine (DETA) phosphonates [DETA Phosphonate]” it was 2 ppm.

For the origin of these results see patent publication US9914869B2, “System and method for inhibiting scale formation in oil wells” (GLOBAL GREEN PRODUCTS LLC, priority 2012, dated 2018).
